Measured values: patent US20230183237A1, “COMPETITIVE AND NONCOMPETITIVE INHIBITORS OF THE MUSCARINIC ACETYLCHOLINE RECEPTOR M5” (Vanderbilt University, priority 2020, published 2023)

Target: T1, hM5 (Homo sapiens, UniProt P08912)
T1 construct: expressed in transfected cells
T1 sequence (P08912 1-532): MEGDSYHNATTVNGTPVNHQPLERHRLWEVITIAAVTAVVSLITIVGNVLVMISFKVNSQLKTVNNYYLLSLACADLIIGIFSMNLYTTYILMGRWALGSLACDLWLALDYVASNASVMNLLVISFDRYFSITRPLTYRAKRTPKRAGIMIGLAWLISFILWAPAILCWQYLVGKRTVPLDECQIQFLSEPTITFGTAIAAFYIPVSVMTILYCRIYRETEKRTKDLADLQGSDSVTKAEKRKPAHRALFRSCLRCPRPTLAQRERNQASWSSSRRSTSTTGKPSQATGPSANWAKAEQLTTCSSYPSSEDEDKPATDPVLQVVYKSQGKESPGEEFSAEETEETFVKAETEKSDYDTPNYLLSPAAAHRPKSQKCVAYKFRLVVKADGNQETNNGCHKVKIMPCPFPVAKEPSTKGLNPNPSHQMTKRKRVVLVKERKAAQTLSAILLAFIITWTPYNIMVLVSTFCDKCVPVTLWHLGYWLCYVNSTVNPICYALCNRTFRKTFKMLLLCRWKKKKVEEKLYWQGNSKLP
Assay: Calcium mobilization concentration-response (IC50 vs EC80 acetylcholine), CHO hM5
Type: cell-based
Conditions: not given
Description: Initial, single point (10 μM) compound characterization was performed in stable Chinese Hamster Ovary (CHO) cell lines constitutively expressing human M5 receptors. These were plated at 15,000 cells per 20 μL per well in Greiner 384-well black-walled, TC-treated, clear-bottomed plates (Fisher) in Ham's F12 medium supplemented with 10% FBS and 20 mM HEPES. Cells were incubated overnight at 37° C. under 5% CO2. The following day, medium was exchanged with assay buffer (Hank's Balanced Salt Solution supplemented with 20 mM HEPES and 2.5 mM Probenecid, pH 7.4) leaving 20 μL of assay buffer in each well. […] The cells were then incubated 50 minutes at 37° C. under 5% CO2. The assay buffer plus dye was then exchanged with fresh assay buffer leaving a volume of 20 μL in each well. Test compounds were diluted into assay buffer to a 2X (20 μM) concentration in 0.2% dimethylsulfoxide (DMSO) in columns 3-22 with matching DMSO concentration in columns 1, 2, 23, and […]; compounds were added to the assay for a final concentration of 10 μM and a final DMSO concentration of 0.1%.
Either an FDSS (Hamamatsu) or Panoptic (WaveFront Biosciences) kinetic imaging plate reader was used for assay execution and measurement of calcium flux. After establishing baseline fluorescence, test compounds (20 μL) were added to the cells using the reader's integrated pipettor and allowed to equilibrate for 140 seconds before addition of the […] concentration of acetylcholine (10 μL) along with vehicle in selected DMSO-only wells in the outer two columns . […] The raw fluorescence data from each well was normalized to the corresponding initial fluorescence reading (static ratio). The maximum fluorescence value following each addition was determined and the minimum value within that same timeframe was subtracted for each well then normalized to the average of the ECffiax maximum-minimum response, providing a % AChmax value for each addition for each well. The single point values represent mean values determined within the ECsu addition timeframe obtained from at least three independent determinations performed in triplicate or greater (error bars represent +/−SEM) unless otherwise specified.
CHO cells stably expressing hM1, hM2/Gqi5, hM3, hM4/Gqi5, hM5, rM1/Gqi5, rM3, rM4/Gqi5, or rM5 were plated in the manner described above. […] FDSS protocols were carried out as described above; the static ratio was calculated and the minimum response subtracted from the maximum response within the timeframe of each addition. This max-min response was then normalized to the maximum acetylcholine response. Calculation of IC50 was performed using the percent maximum acetylcholine response for the EC80 addition through the Vortex and Studies modules of the Dotmatics data management software. Results are stored in the Dotrnatics database and an audit trail of any changes to their analysis is generated. Data shown represent mean values obtained from at least three independent determinations performed in triplicate or greater (error bars represent±SEM) unless otherwise specified.

Row | Compound | IC50 [nM]
1 | Cc1cc2ncnn2cc1C1CC2CCC(C1)N2S(=O)(=O)c1cnn(C)c1C (centres unmarked) [Compound 191, 6-(8-((1,5-dimethyl-1H-pyrazol-4-yl)sulfonyl)-8-azabicyclo[3.2.1]octan-3-yl)-7-methyl-[1,2,4]triazolo[1,5-a]pyridine] | > 10000

Same assay, conditions: CELL LINE hM5; calcium mobilization, EC80 acetylcholine addition; read-out: IC50

Row | Compound | IC50 [nM]
2 | COc1cc2ncnn2cc1C1CCN(S(=O)(=O)c2cnn3c2CCC3)CC1 [Compound 263, 6-(1-((5,6-dihydro-4H-pyrrolo[1,2-b]pyrazol-3-yl)sulfonyl)piperidin-4-yl)-7-methoxy-[1,2,4]triazolo[1,5-a]pyridine] | 1400
3 | Cc1cc2nccn2nc1C1CCN(S(=O)(=O)c2cnn(C(F)F)c2C)CC1 [Compound 312, 6-(1-((1-(difluoromethyl)-5-methyl-1H-pyrazol-4-yl)sulfonyl)piperidin-4-yl)-7-methylimidazo[1,2-b]pyridazine] | 877
4 | Cc1cc2ncnn2nc1C1CCN(S(=O)(=O)c2cnc3n2CCC3)CC1 [Compound 208, 6-(1-((6,7-dihydro-5H-pyrrolo[1,2-a]imidazol-3-yl)sulfonyl)piperidin-4-yl)-7-methyl-[1,2,4]triazolo[1,5-b]pyridazine] | > 10000
5 | Cc1cc2ncnn2cc1C1CCN(S(=O)(=O)c2ccc3c(c2)C(C)(C)CO3)CC1 [Compound 74, 6-(1-((3,3-dimethyl-2,3-dihydrobenzofuran-5-yl)sulfonyl)piperidin-4-yl)-7-methyl-[1,2,4]triazolo[1,5-a]pyridine] | > 10000
6 | Cc1cc2ncnn2cc1C1CCN(S(=O)(=O)c2ccc3c(c2)CCO3)C1 (centres unmarked) [Compound 126, 6-(1-((2,3-dihydrobenzofuran-5-yl)sulfonyl)pyrrolidin-3-yl)-7-methyl-[1,2,4]triazolo[1,5-a]pyridine] | > 10000
7 | Cc1cc2ncnn2cc1C1CCN(S(=O)(=O)c2ccccc2-c2ccno2)CC1 [Compound 96, 5-(2-((4-(7-methyl-[1,2,4]triazolo[1,5-a]pyridin-6-yl)piperidin-1-yl)sulfonyl)phenyl)isoxazole] | > 10000
8 | Cc1c(S(=O)(=O)N2CCC(c3ccc4ncnn4c3C)CC2)cnn1C [Compound 198, 6-(1-((1,5-dimethyl-1H-pyrazol-4-yl)sulfonyl)piperidin-4-yl)-5-methyl-[1,2,4]triazolo[1,5-a]pyridine] | > 10000
9 | CCc1cc2ncnn2cc1C1CCN(S(=O)(=O)c2cnn3c2CCCC3)CC1 [Compound 302, 7-ethyl-6-(1-((4,5,6,7-tetrahydropyrazolo[1,5-a]pyridin-3-yl)sulfonyl)piperidin-4-yl)-[1,2,4]triazolo[1,5-a]pyridine] | 54
10 | O=S(=O)(c1ccc2ncsc2c1)N1CCC(c2ccc3ncnn3c2)CC1 [Compound 62, 6-((4-([1,2,4]triazolo[1,5-a]pyridin-6-yl)piperidin-1-yl)sulfonyl)benzo[d]thiazole] | > 10000
11 | Cc1cc2ncnn2nc1C1CCN(S(=O)(=O)c2ccc3ncsc3c2)CC1 [Compound 185, 6-((4-(7-methyl-[1,2,4]triazolo[1,5-b]pyridazin-6-yl)piperidin-1-yl)sulfonyl)benzo[d]thiazole] | > 10000
12 | Cc1cc(C#N)cnc1C1CCN(S(=O)(=O)c2cnn(C)c2C)CC1 [Compound 217, 6-(1-((1,5-Dimethyl-1H-pyrazol-4-yl)sulfonyl)piperidin-4-yl)-5-methylnicotinonitrile] | > 10000
13 | Cc1ncc(S(=O)(=O)N2CCC(F)(c3cn4ncnc4cc3C)CC2)s1 [Compound 245, 5-((4-fluoro-4-(7-methyl-[1,2,4]triazolo[1,5-a]pyridin-6-yl)piperidin-1-yl)sulfonyl)-2-methylthiazole] | > 10000
14 | O=S(=O)(c1cnn2c1CCC2)N1CCC(c2cn3ncnc3cc2F)CC1 [Compound 232, 6-(1-((5,6-dihydro-4H-pyrrolo[1,2-b]pyrazol-3-yl)sulfonyl)piperidin-4-yl)-7-fluoro-[1,2,4]triazolo[1,5-a]pyridine] | 26
15 | Cc1cc2ncnn2cc1C1CCN(S(=O)(=O)c2cnc3c(c2)CCO3)CC1 [Compound 141, 5-((4-(7-methyl-[1,2,4]triazolo[1,5-a]pyridin-6-yl)piperidin-1-yl)sulfonyl)-2,3-dihydrofuro[2,3-b]pyridine] | 1400
16 | CCc1cc2ncnn2cc1C1CCN(S(=O)(=O)c2cnc(C)n2C)CC1 [Compound 300, 6-(1-((1,2-dimethyl-1H-imidazol-5-yl)sulfonyl)piperidin-4-yl)-7-ethyl-[1,2,4]triazolo[1,5-a]pyridine] | 227

Same assay, conditions: CELL LINE hM5; vs EC80 acetylcholine; read-out: IC50

Row | Compound | IC50 [nM]
17 | [2H]C1([2H])CC(c2cn3ncnc3cc2F)CC([2H])([2H])N1S(=O)(=O)c1cnc2sccn12 [Compound 538, 5-((4-(7-fluoro-[1,2,4]triazolo[1,5-a]pyridin-6-yl)piperidin-1-yl-2,2,6,6-d4)sulfonyl)imidazo[2,1-b]thiazole] | 125
18 | O=S(=O)(c1cnn2ccccc12)N1CCC(c2cn3ncnc3cc2C(F)(F)F)CC1 [Compound 511, 6-(1-(pyrazolo[1,5-a]pyridin-3-ylsulfonyl)piperidin-4-yl)-7-(trifluoromethyl)-[1,2,4]triazolo[1,5-a]pyridine] | 102
19 | Cc1cc2ncnn2cc1C1CCN(S(=O)(=O)c2cnn(C)c2CN)CC1 [Compound 529, (1-methyl-4-((4-(7-methyl-[1,2,4]triazolo[1,5-a]pyridin-6-yl)piperidin-1-yl)sulfonyl)-1H-pyrazol-5-yl)methanamine] | 371
20 | Cc1cc2ncnn2cc1C1CCN(S(=O)(=O)c2cnn(C)c2C2CCNCC2)CC1 [Compound 577, 7-Methyl-6-(1-((1-methyl-5-(piperidin-4-yl)-1H-pyrazol-4-yl)sulfonyl)piperidin-4-yl)-[1,2,4]triazolo[1,5-a]pyridine] | > 10000
21 | Cn1cc(S(=O)(=O)N2CCC(c3cn4ncnc4cc3F)CC2)nn1 [Compound 571, 7-fluoro-6-(1-((1-methyl-1H-1,2,3-triazol-4-yl)sulfonyl)piperidin-4-yl)-[1,2,4]triazolo[1,5-a]pyridine] | > 10000
22 | [2H]C1([2H])CC(c2cn3ncnc3c(F)c2C)CC([2H])([2H])N1S(=O)(=O)c1cnc(C)o1 [Compound 569, 5-((4-(8-fluoro-7-methyl-[1,2,4]triazolo[1,5-a]pyridin-6-yl)piperidin-1-yl-2,2,6,6-d4)sulfonyl)-2-methyloxazole] | 174
23 | Cc1cc2ncnn2cc1C1CCN(S(=O)(=O)c2conc2C)CC1 [Compound 499, 3-methyl-4-((4-(7-methyl-[1,2,4]triazolo[1,5-a]pyridin-6-yl)piperidin-1-yl)sulfonyl)isoxazole] | 4510
24 | O=S(=O)(c1cnc2sccn12)N1CCC(c2cn3ncnc3cc2C(F)F)CC1 [Compound 515, 5-((4-(7-(difluoromethyl)-[1,2,4]triazolo[1,5-a]pyridin-6-yl)piperidin-1-yl)sulfonyl)imidazo[2,1-b]thiazole] | 34
25 | Cc1cc2ncnn2nc1C1CCN(S(=O)(=O)c2cn(C)nn2)CC1 [Compound 559, 7-methyl-6-(1-((1-methyl-1H-1,2,3-triazol-4-yl)sulfonyl)piperidin-4-yl)-[1,2,4]triazolo[1,5-b]pyridazine] | > 10000
26 | Cc1c(C2CCN(S(=O)(=O)c3cnn(C)c3CC#N)CC2)cn2ncnc2c1F [Compound 439, 2-(4-((4-(8-fluoro-7-methyl-[1,2,4]triazolo[1,5-a]pyridin-6-yl)piperidin-1-yl)sulfonyl)-1-methyl-1H-pyrazol-5-yl)acetonitrile] | 162
